± gives the standard error.
Legend:
621-103 (TSC2-rescued) = experiment: relative viability vs DMSO; higher = less cytotoxic; details: serum: 10% FBS, 72 h
621-102 (TSC2-deficient) = experiment: as above; details: serum: 10% FBS, 72 h
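Further: immortalized renal angiomyolipoma cells stably carrying empty vector or TSC2, dosed in 384-well plates in DMEM, viability normalized to vehicle-treated wells within each plate.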

| Structure (SMILES) | relative viability (621-103 (TSC2-rescued); 0.0001 µM) [%] | relative viability (621-103 (TSC2-rescued); 0.001 µM) [%] | relative viability (621-103 (TSC2-rescued); 0.01 µM) [%] | relative viability (621-103 (TSC2-rescued); 0.1 µM) [%] | relative viability (621-103 (TSC2-rescued); 1 µM) [%] | relative viability (621-103 (TSC2-rescued); 10 µM) [%] | relative viability (621-102 (TSC2-deficient); 0.0001 µM) [%] | relative viability (621-102 (TSC2-deficient); 0.001 µM) [%] | relative viability (621-102 (TSC2-deficient); 0.01 µM) [%] | relative viability (621-102 (TSC2-deficient); 0.1 µM) [%] | relative viability (621-102 (TSC2-deficient); 1 µM) [%] | relative viability (621-102 (TSC2-deficient); 10 µM) [%] |
| --- | --- | --- | --- | --- | --- | --- | --- | --- | --- | --- | --- | --- |
| CC1(C)CCC(c2ccc(Cl)cc2)=C(CN2CCN(c3ccc(C(=O)NS(=O)(=O)c4ccc(N[C@H](CCN5CCOCC5)CSc5ccccc5)c(S(=O)(=O)C(F)(F)F)c4)cc3)CC2)C1 [ABT-263 (Navitoclax)] | 100.9 ± 0.9 | 98.3 ± 2.4 | 98 ± 1.2 | 98.6 ± 2 | 97.65 ± 0.41 | 55.33 ± 0.17 | 114 ± 3.6 | 123 ± 7.2 | 116 ± 4.2 | 104 ± 3.3 | 118.5 ± 0.83 | 68.4 ± 0.82 |
| COc1ccc(S(=O)(=O)Nc2cccnc2Nc2ccc(O)cc2)cc1 [ABT-751] | 108 ± 3.8 | 108 ± 2.6 | 105 ± 3.2 | 98 ± 1.5 | 44.2 ± 2.2 | 44.8 ± 0.75 | 112 ± 3.7 | 114 ± 3.9 | 111 ± 1.8 | 110 ± 5.1 | 44.8 ± 1.6 | 49.55 ± 0.36 |
| Cc1ccc(F)c(NC(=O)Nc2ccc(-c3cccc4[nH]nc(N)c34)cc2)c1 [ABT-869] | 97.84 ± 0.17 | 100 ± 1.3 | 108 ± 6.2 | 107 ± 3.4 | 109.7 ± 0.82 | 80.4 ± 3.2 | 106 ± 3 | 100.3 ± 0.6 | 108 ± 1.6 | 108 ± 5.5 | 107 ± 2.2 | 86 ± 1.5 |
| C[C@]1(c2nc3c(C(N)=O)cccc3[nH]2)CCCN1 [ABT-888] | 104.8 ± 1 | 103.4 ± 0.84 | 104 ± 0.11 | 104.7 ± 0.51 | 105 ± 1.5 | 103 ± 1.3 | 129 ± 4.1 | 118 ± 1.3 | 124.3 ± 1.1 | 120 ± 1.6 | 122 ± 2.6 | 104 ± 3.6 |
| CC(C)(C)c1cc(NC(=O)Nc2ccc(-c3cn4c(n3)sc3cc(OCCN5CCOCC5)ccc34)cc2)no1 [AC-220] | 96.29 ± 0.69 | 98 ± 1.9 | 99.4 ± 2.7 | 97.8 ± 2.8 | 76.5 ± 4.7 | 44.7 ± 1.2 | 81.8 ± 3.2 | 84.77 ± 0.0088 | 87.3 ± 3.6 | 84.9 ± 5.7 | 70.1 ± 1.2 | 53.1 ± 3 |
| N#C/C(=C\c1ccc(O)c(O)c1)C(=O)NCc1ccccc1 [AG-490] | 109 ± 1.2 | 109 ± 3.9 | 108 ± 2 | 114 ± 1.2 | 107 ± 1 | 83.8 ± 3.9 | 99.7 ± 2.8 | 98.6 ± 3.6 | 92.6 ± 2.9 | 104 ± 2.4 | 99.2 ± 6.6 | 81 ± 1.6 |
| Cc1csc(-c2nnc(Nc3ccc(Oc4ncccc4-c4ccnc(N)n4)cc3)c3ccccc23)c1 [AMG900] | 88.9 ± 4.5 | 77.64 ± 0.67 | 71.5 ± 4.7 | 77.7 ± 1.1 | 65.8 ± 2.5 | 73.6 ± 1.5 | 84.8 ± 2 | 74.8 ± 1.5 | 75.4 ± 0.76 | 83.24 ± 0.43 | 78.91 ± 0.56 | 76 ± 2.4 |
| CC(C)[C@H](C(=O)Nc1ccc(C(=O)NO)cc1)c1ccccc1 [AR-42 (HDAC-42)] | 109 ± 2 | 98.16 ± 0.28 | 102 ± 6.3 | 83.4 ± 3.6 | 41.07 ± 0.079 | 3.41 ± 0.081 | 94.68 ± 0.44 | 109 ± 2.2 | 90.8 ± 3.5 | 82.4 ± 0.9 | 61.7 ± 2.2 | 41 ± 1.6 |
| Clc1ccc(C2(c3ccc(-c4cn[nH]c4)cc3)CCNCC2)cc1 [AT7867] | 89.1 ± 5.1 | 90.1 ± 2.4 | 90.2 ± 4.9 | 94.3 ± 6.7 | 75.1 ± 5.7 | 18.5 ± 2.6 | 98.8 ± 5.5 | 102 ± 6.2 | 105 ± 4.8 | 95.8 ± 1.7 | 85.23 ± 0.13 | 49.2 ± 3.2 |
| COc1cc2nccc(Oc3ccc(NC(=O)Nc4cc(C)on4)c(Cl)c3)c2cc1OC [AV-951(Tivozanib)] | 101.2 ± 0.14 | 104 ± 1.3 | 102.2 ± 0.42 | 99.26 ± 0.52 | 102 ± 2.4 | 48.2 ± 1.3 | 102 ± 2 | 96.6 ± 3.2 | 110 ± 5.9 | 111 ± 2 | 107 ± 2.7 | 77.33 ± 0.38 |
| Cc1cc(Nc2nc(N[C@@H](C)c3ccc(F)cc3)c(C#N)cc2F)n[nH]1 [AZ 960] | 99.9 ± 3.1 | 101 ± 1.2 | 94.7 ± 2.2 | 92.44 ± 0.84 | 62.82 ± 0.16 | 16.3 ± 0.85 | 99.6 ± 4 | 107 ± 3.6 | 103 ± 4.5 | 104 ± 2.7 | 47.1 ± 3.6 | 44.9 ± 4.3 |
| CCN(CCO)CCCOc1ccc2c(Nc3cc(CC(=O)Nc4cccc(F)c4)[nH]n3)ncnc2c1 [AZD1152-HQPA (Barasertib)] | 97.225 ± 0.04 | 98.1 ± 0.35 | 96.9 ± 0.98 | 91.9 ± 3.1 | 84.56 ± 0.56 | 85.5 ± 2.6 | 114 ± 6.7 | 111 ± 1.4 | 107 ± 2 | 79.4 ± 1.5 | 68.2 ± 0.79 | 73 ± 1.6 |
| Cc1cc(Nc2nc(N[C@@H](C)c3ncc(F)cn3)ncc2Cl)[nH]n1 [AZD1480] | 97.89 ± 0.31 | 89.6 ± 1.1 | 86.7 ± 3.9 | 92.2 ± 2.8 | 89.4 ± 2.6 | 53.6 ± 1.4 | 104 ± 2.1 | 101.7 ± 0.92 | 104 ± 1.7 | 100.8 ± 0.59 | 103 ± 3.8 | 87.7 ± 1.2 |
| O=C(c1cc(Cc2n[nH]c(=O)c3ccccc23)ccc1F)N1CCN(C(=O)C2CC2)CC1 [AZD2281 (Olaparib)] | 104 ± 1.5 | 103 ± 1.7 | 104.6 ± 0.91 | 99.6 ± 3.1 | 104 ± 1.5 | 98.4 ± 4.5 | 120 ± 2.1 | 129 ± 5.5 | 125 ± 5.6 | 120 ± 2.8 | 114.2 ± 0.69 | 81.75 ± 0.48 |
| Cc1ncc(-c2ccnc(Nc3ccc(S(C)(=O)=O)cc3)n2)n1C(C)C [AZD5438] | 110.9 ± 0.22 | 105.8 ± 0.22 | 98.7 ± 4.7 | 108 ± 1.6 | 89.4 ± 2.3 | 27.7 ± 0.92 | 103 ± 7.6 | 101 ± 1.4 | 95.4 ± 1.6 | 99.55 ± 0.14 | 88.1 ± 1.8 | 11.69 ± 0.054 |

From the supplement of paper PMC8960247
